Experimental findings from US20190134005A1 (BioMarin Pharmaceutical Inc., priority 2016, published 2019) are described below.

One assay deals with T1, human CGT (Homo sapiens, UniProt Q16880).
T1 sequence (Q16880 21-541): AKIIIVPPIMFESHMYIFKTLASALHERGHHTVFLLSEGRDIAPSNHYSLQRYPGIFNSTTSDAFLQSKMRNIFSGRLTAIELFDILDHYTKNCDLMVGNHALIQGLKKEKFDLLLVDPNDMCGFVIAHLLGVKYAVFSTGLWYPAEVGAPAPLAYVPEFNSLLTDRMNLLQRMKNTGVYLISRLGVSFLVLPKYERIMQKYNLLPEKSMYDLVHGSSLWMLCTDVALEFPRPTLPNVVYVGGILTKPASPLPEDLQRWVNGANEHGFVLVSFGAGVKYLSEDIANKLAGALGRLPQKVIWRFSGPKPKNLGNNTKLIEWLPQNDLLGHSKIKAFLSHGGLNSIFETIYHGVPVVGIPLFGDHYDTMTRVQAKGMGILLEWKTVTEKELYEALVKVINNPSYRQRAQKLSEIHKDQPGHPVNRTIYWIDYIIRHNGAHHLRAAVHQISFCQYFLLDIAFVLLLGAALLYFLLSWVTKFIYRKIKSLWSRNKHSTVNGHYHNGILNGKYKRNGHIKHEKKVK
Nature of the assay: Assay 1: CGT Enzymatic Assay (RapidFire/MS/MS, 0.01% Tween 80). The following applies: Table 1, Compounds of Formula (I) and Formula (II); CGT enzymatic assay, C6-NBD-dihydro-galactosylceramide readout; read-out: IC50. It is filed as biochemical.
In the case of `Cc1ccc(N2C(=O)N(c3ccc(Cl)cc3)C3(COC3)C2(O)c2cccc(OC(F)(F)F)c2)cc1` (centres unmarked) [Compound 299, 5-(4-chlorophenyl)-8-hydroxy-7-(p-tolyl)-8-(3-(trifluoromethoxy)phenyl)-2-oxa-5,7-diazaspiro[3.4]octan-6-one], the IC50 is less than 1000 nM.
In the case of `N#Cc1ccc(N2C(=O)N(c3ccc(C#N)cc3)C(O)(c3cccc(OC(F)(F)F)c3)C23COC3)cc1` (centres unmarked) [Compound 275, 4,4′-(8-hydroxy-6-oxo-8-(3-(trifluoromethoxy)phenyl)-2-oxa-5,7-diazaspiro[3.4]octane-5,7-diyl)dibenzonitrile], the half-maximal inhibitory concentration (IC50) was less than 1000 nM.
As to `Cc1ccc(N2C(=O)N(c3ccc(Cl)cc3)C(O)(c3cccc(OC(F)(F)F)c3)C2(C)C)cc1` (centres unmarked) [Example 318, 1-(4-chlorophenyl)-5-hydroxy-4,4-dimethyl-3-(p-tolyl)-5-(3-(trifluoromethoxy)phenyl)imidazolidin-2-one], the IC50 was less than 1000 nM.
Still for that read-out and setting: as for `O=C1N(c2ccc(Cl)cc2)C2(COC2)C(O)(c2cccc(OC(F)F)c2)N1c1ccc(Cl)cc1` (centres unmarked) [Compound 272, 5,7-bis(4-chlorophenyl)-8-(3-(difluoromethoxy)phenyl)-8-hydroxy-2-oxa-5,7-diazaspiro[3.4]octan-6-one], the figure is less than 1000 nM; as for `COc1ccc(N2C(=O)N(c3ccc(OC)cc3)C(O)(c3cccc(C#N)c3)C2(C)C)cc1` (centres unmarked) [Example 328, 3-(4-hydroxy-1,3-bis(4-methoxyphenyl)-5,5-dimethyl-2-oxoimidazolidin-4-yl)benzonitrile], 1000 to 10000 nM; as for `N#Cc1ccc(N2C(=O)N(c3ccc(C#N)cc3)C(O)(c3cccc(OC(F)(F)F)c3)C23CCCC3)cc1` (centres unmarked) [Example 326, 4,4′-(4-hydroxy-2-oxo-4-(3-(trifluoromethoxy)phenyl)-1,3-diazaspiro[4.4]nonane-1,3-diyl)dibenzonitrile], less than 1000 nM.
The same measure, in the same setting: as for `Cc1ccc(N2C(=O)N(c3ccc(Cl)cc3)C(O)(c3cccc(C#N)c3)C2(C)C)cc1` (centres unmarked) [Example 317, 3-(3-(4-chlorophenyl)-4-hydroxy-5,5-dimethyl-2-oxo-1-(p-tolyl)imidazolidin-4-yl)benzonitrile], the figure is less than 1000 nM.

The same assay, now with this note: Table 1, Compounds of Formula (I) and Formula (II); CGT enzymatic assay; read-out: IC50.
On to `N#Cc1cc(Cl)cc(-c2cn(-c3ccc(Cl)cc3)c(=O)n2-c2ccc(Cl)cc2)c1` [Compound 265, 3-(1,3-bis(4-chlorophenyl)-2-oxo-2,3-dihydro-1H-imidazol-4-yl)-5-chlorobenzonitrile], for which the IC50 is more than 50000 nM.
Same read-out and setting: under `COc1cccc(C2(C)C(O)N(c3ccc(Br)cc3)C(=O)N2c2ccc(Br)cc2)c1` (centres unmarked) [Compound 126, 1,3-bis(4-bromophenyl)-5-hydroxy-4-(3-methoxyphenyl)-4-methylimidazolidin-2-one] stands 1000 to 10000 nM.
On the same count and under the same terms, as for `C[C@H]1N(c2ccc(Cl)cc2)C(=O)N(c2ccc(Cl)cc2)C1(O)c1cccc(C(C)(C)O)c1` (stereo partly drawn) [Compound 140-2, (5R)-1,3-bis(4-chlorophenyl)-4-hydroxy-4-(3-(2-hydroxypropan-2-yl)phenyl)-5-methylimidazolidin-2-one], the figure is 1000 to 10000 nM.
Same read-out and setting: as for `O=C1N(c2ccc(Cl)cc2)[C@]2(CCOC2)[C@@](O)(c2cccc(OC(F)(F)F)c2)N1c1ccc(Cl)cc1` [Compound 234-2, (4S,5S)-1,3-bis(4-chlorophenyl)-4-hydroxy-4-(3-(trifluoromethoxy)phenyl)-7-oxa-1,3-diazaspiro[4.4]nonan-2-one], the figure is less than 1000 nM; as for `O=C1N(c2ccc(Br)cc2)[C@@H](C2CC2)C(O)(c2ccccc2)N1c1ccc(Br)cc1` (stereo partly drawn) [Compound 115-1, (5S)-1,3-bis(4-bromophenyl)-5-cyclopropyl-4-hydroxy-4-phenylimidazolidin-2-one], less than 1000 nM.
In the case of `N#Cc1cccc(C2(O)N(c3ccc(Cl)cc3)C(=O)N(c3ccc(Cl)cc3)C23CCOC3)c1` (centres unmarked) [Example 221, 3-(1,3-bis(4-chlorophenyl)-4-hydroxy-2-oxo-7-oxa-1,3-diazaspiro[4.4]nonan-4-yl)benzonitrile], the IC50 was less than 1000 nM.
Consider `O=C1N(c2ccc(Br)cc2)C(=O)C(O)(c2ccc(N3CCCCC3)cc2)N1c1ccc(Br)cc1` (centres unmarked) [Example 173, 1,3-bis(4-bromophenyl)-5-hydroxy-5-(4-(piperidin-1-yl)phenyl)imidazolidine-2,4-dione], for which the concentration for half-maximal inhibition (IC50) is more than 50000 nM.
As to `CC(C)C1N(c2ccc(C(F)(F)F)cc2)C(=O)N(c2ccc(C(F)(F)F)cc2)C1(O)c1cccc(OC(F)(F)F)c1` (centres unmarked) [Example 196, 4-hydroxy-5-isopropyl-4-(3-(trifluoromethoxy)phenyl)-1,3-bis(4-(trifluoromethyl)phenyl)imidazolidin-2-one], the concentration for half-maximal inhibition (IC50) was less than 1000 nM.
The same measure, in the same setting: as for `O=C1N(c2ccc(Br)cc2)C(=O)C(O)(c2ccc(OC3CCCC3)cc2)N1c1ccc(Br)cc1` (centres unmarked) [Example 167, 1,3-bis(4-bromophenyl)-5-(4-(cyclopentyloxy)phenyl)-5-hydroxyimidazolidine-2,4-dione], the figure is 50000 to 100000 nM; as for `C#Cc1cccc(C2(O)[C@@H](C)N(c3ccc(Cl)cc3)C(=O)N2c2ccc(Cl)cc2)c1` (stereo partly drawn) [Compound 93-2, (5R)-1,3-bis(4-chlorophenyl)-4-(3-ethynylphenyl)-4-hydroxy-5-methylimidazolidin-2-one], less than 1000 nM.
On the same count and under the same terms, under `O=C1N(c2ccc(Br)cc2)C(=O)C(O)(c2ccc(OC3CC3)cc2)N1c1ccc(Br)cc1` (centres unmarked) [Example 164, 1,3-bis(4-bromophenyl)-5-(4-cyclopropoxyphenyl)-5-hydroxyimidazolidine-2,4-dione] stands more than 50000 nM; under `CC[C@]1(C)C(c2cccc(OC(F)(F)F)c2)N(c2ccc(C#N)cc2)C(=O)N1c1ccc(C#N)cc1` (stereo partly drawn) [Example 51-1, 4,4′-((4R)-4-ethyl-4-methyl-2-oxo-5-(3-(trifluoromethoxy)phenyl)imidazolidine-1,3-diyl)dibenzonitrile], 1000 to 10000 nM; under `O=C1N(c2ccc(F)cc2)C(=O)C(O)(c2ccccc2)N1c1ccc(F)cc1` (centres unmarked) [Example 161, 1,3-bis(4-fluorophenyl)-5-hydroxy-5-phenylimidazolidine-2,4-dione], more than 50000 nM.
The same measure, in the same setting: under `O=C1N(c2ccc(Br)cc2)CC(O)(c2nc3ccccc3s2)N1c1ccc(Br)cc1` (centres unmarked) [Example 10, 4-(benzo[d]thiazol-2-yl)-1,3-bis(4-bromophenyl)-4-hydroxyimidazolidin-2-one] stands more than 50000 nM; under `N#Cc1ccc(C2(O)CN(c3ccc(Br)cc3)C(=O)N2c2ccc(Br)cc2)cc1` (centres unmarked) [Compound 61, 4-(1,3-bis(4-bromophenyl)-4-hydroxy-2-oxoimidazolidin-4-yl)benzonitrile], more than 50000 nM; under `Cc1csc(C2(O)[C@H](C)N(c3ccc(Br)cc3)C(=O)N2c2ccc(Br)cc2)c1` (stereo partly drawn) [Compound 97-1, (5S)-1,3-bis(4-bromophenyl)-4-hydroxy-5-methyl-4-(4-methylthiophen-2-yl)imidazolidin-2-one], 1000 to 10000 nM.
As to `CC1N(c2ccc(Cl)cc2)C(=O)N(c2ccc(Cl)cc2)C1(O)c1cccc(Br)c1` (centres unmarked) [Compound 94, 4-(3-bromophenyl)-1,3-bis(4-chlorophenyl)-4-hydroxy-5-methylimidazolidin-2-one], the IC50 was less than 1000 nM.
Still for that read-out and setting: under `O=C1N(c2ccc(Cl)cc2)[C@@H]([C@@H]2CCCO2)C(O)(c2cccc(Cl)c2)N1c1ccc(Cl)cc1` (single isomer, unassigned) [Compound 117-1] stands 1000 to 10000 nM; under `N#Cc1cccc(C2(O)[C@@H](C3CCC3)N(c3ccc(Cl)cc3)C(=O)N2c2ccc(Cl)cc2)c1` (stereo partly drawn) [Example 194-2, 3-((5R)-1,3-bis(4-chlorophenyl)-5-cyclobutyl-4-hydroxy-2-oxoimidazolidin-4-yl)benzonitrile], less than 1000 nM; under `O=C1N(c2ccc(Cl)cc2)[C@H](C2CCC2)C(O)(c2cccc(OC(F)(F)F)c2)N1c1ccc(Cl)cc1` (stereo partly drawn) [Example 191-2, (5R)-1,3-bis(4-chlorophenyl)-5-cyclobutyl-4-hydroxy-4-(3-(trifluoromethoxy)phenyl)imidazolidin-2-one], less than 1000 nM.
On to `N#Cc1cccc(C2(O)[C@H](CC3CC3)N(c3ccc(Cl)cc3)C(=O)N2c2ccc(Cl)cc2)c1` (single isomer, unassigned) [Compound 132-1], for which the IC50 lay within 1000 to 10000 nM.
Same read-out and setting: under `CCCc1c(-c2cccc(OC(F)(F)F)c2)n(-c2ccc(Br)cc2)c(=O)n1-c1ccc(Br)cc1` [Compound 248, 1,3-bis(4-bromophenyl)-4-propyl-5-(3-(trifluoromethoxy)phenyl)-1,3-dihydro-2H-imidazol-2-one] stands less than 1000 nM; under `CC1(C)N(c2ccc(Cl)cc2)C(=O)N(c2ccc(Cl)cc2)C1(O)c1cncc(C#N)c1` (centres unmarked) [Example 186, 5-(1,3-bis(4-chlorophenyl)-4-hydroxy-5,5-dimethyl-2-oxoimidazolidin-4-yl)nicotinonitrile], less than 1000 nM; under `CCC1N(c2ccc(Br)cc2)C(=O)N(c2ccc(Br)cc2)C1(O)c1cccc(C(F)(F)F)c1` (centres unmarked) [Compound 67, 1,3-bis(4-bromophenyl)-5-ethyl-4-hydroxy-4-(3-(trifluoromethyl)phenyl)imidazolidin-2-one], less than 1000 nM.
On the same count and under the same terms, under `Cc1ccc(N2C(=O)N(c3ccc(C)cc3)C(O)(c3cccc(OC(F)(F)F)c3)C23CCC3)cc1` (centres unmarked) [Compound 239, 8-hydroxy-5,7-di-p-tolyl-8-(3-(trifluoromethoxy)phenyl)-5,7-diazaspiro[3.4]octan-6-one] stands less than 1000 nM.

In general, IC50 refers to the midpoint of a concentration-inhibition curve.
